The record followed here is publication PMC10128108 (RSC Advances, 2023).

Entries after “also recorded” stand apart in the source; their conditions may differ.

The test system of data set [1] is human lung fibroblasts (WI-38) normal cells. Briefly: MTT cytotoxicity assay, normal WI-38 cells. The format is cell-based. The conditions noted are these: WI-38, read-out: IC50 against WI-38. Background: Formazan colour is commonly taken as a measure of viable cells.
Data set [2] deals with MCF-7 breast cancer cell line. In words: MTT antiproliferative assay, MCF-7. Particulars: for IC50: Homo sapiens, MCF7, read-out: IC50 against MCF-7; for SI (selectivity index), MCF-7: relative to normal WI-38 cells.
Data set [3] concerns HepG-2 liver cancer cell line. In words: MTT antiproliferative assay, HepG-2. The conditions noted are these: for IC50: Homo sapiens, HepG2, read-out: IC50 against HepG-2; for SI (selectivity index), HepG-2: relative to normal WI-38 cells.
The subject of data set [4] is HCT-116 colorectal cancer cell line. In words: MTT antiproliferative assay, HCT-116. Particulars: for IC50: Homo sapiens, HCT-116, read-out: IC50 against HCT-116; for SI (selectivity index), HCT-116: relative to normal WI-38 cells.
The test system of data set [5] is HepG-2 cells. Briefly: Cell cycle analysis. Type of data set: cell-based, human. Particulars: 24 h.
Data set [6] deals with HepG-2 cells. In words: Annexin V-FITC/PI apoptosis assay. Type of data set: cell-based, human.
The test system of another data set is Bax. In words: Bax level, ELISA in HepG-2. The format is cell-based, human. The conditions noted are these: for Bax: HepG-2, 24 h, 5a at 3.42 μM; for Bax/Bcl-2: ratio of the two levels, HepG-2.
A further data set concerns Bcl-2. Briefly: Bcl-2 level, ELISA in HepG-2. Particulars: for Bcl-2: HepG-2, 24 h, 5a at 3.42 μM. The format is cell-based, human. In general terms: In an ELISA, binding on a coated surface is turned into a signal by an enzyme label.
For another data set, the system named is p53. In words: p53 level, ELISA in HepG-2. Type of data set: cell-based, human.
Another data set relates to caspase-3. Briefly: Caspase-3 level, ELISA in HepG-2. The format is cell-based, human. The conditions noted are these: for Casp-3: HepG-2, 24 h, 5a at 3.42 μM.
The next data set concerns the target c-Met kinase (Homo sapiens, UniProt P08581). In words: c-Met kinase inhibitory assay.
The mark [7] stands for this setting: HepG-2, IC50 concentration (3.42 μM).
The mark [8] stands for this setting: with respect to untreated HepG-2 cells.

Sequence of c-Met kinase (P08581 25-1390): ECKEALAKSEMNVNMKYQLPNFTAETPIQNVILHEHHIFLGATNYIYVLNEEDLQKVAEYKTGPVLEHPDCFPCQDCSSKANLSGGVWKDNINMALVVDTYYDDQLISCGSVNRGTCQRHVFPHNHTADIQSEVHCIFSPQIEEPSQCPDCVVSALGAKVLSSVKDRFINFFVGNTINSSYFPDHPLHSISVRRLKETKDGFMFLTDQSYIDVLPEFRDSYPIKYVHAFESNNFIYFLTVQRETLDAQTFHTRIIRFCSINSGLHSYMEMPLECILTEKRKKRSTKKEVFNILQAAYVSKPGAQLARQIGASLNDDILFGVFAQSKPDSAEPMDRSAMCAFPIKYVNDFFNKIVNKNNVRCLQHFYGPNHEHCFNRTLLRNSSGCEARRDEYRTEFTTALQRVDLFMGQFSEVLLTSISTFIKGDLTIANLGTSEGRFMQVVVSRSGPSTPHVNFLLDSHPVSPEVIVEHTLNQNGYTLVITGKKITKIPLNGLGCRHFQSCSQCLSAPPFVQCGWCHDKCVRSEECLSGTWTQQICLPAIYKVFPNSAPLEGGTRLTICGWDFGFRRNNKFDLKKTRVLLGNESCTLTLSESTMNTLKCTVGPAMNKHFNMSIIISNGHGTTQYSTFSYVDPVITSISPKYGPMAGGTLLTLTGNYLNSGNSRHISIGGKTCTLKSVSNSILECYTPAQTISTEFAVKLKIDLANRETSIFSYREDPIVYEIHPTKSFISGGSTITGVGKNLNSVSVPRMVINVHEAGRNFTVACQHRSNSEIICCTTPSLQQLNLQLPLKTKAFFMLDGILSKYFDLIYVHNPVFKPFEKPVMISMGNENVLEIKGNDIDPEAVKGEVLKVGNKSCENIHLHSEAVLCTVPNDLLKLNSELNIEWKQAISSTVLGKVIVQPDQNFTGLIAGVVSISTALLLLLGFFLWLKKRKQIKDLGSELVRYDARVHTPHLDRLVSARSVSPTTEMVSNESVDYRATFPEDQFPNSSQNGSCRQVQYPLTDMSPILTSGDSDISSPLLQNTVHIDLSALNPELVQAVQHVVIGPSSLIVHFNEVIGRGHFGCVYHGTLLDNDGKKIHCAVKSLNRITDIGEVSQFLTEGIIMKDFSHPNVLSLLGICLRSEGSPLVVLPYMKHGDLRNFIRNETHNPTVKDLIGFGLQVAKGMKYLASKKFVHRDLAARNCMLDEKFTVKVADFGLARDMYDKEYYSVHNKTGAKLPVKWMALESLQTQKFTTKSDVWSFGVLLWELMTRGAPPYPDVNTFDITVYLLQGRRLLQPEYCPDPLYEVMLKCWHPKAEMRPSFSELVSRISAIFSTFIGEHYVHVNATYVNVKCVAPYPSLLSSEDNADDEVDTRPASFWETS

The IC50 is the concentration that inhibits the measured activity by half. In the case of `O=c1[nH]cc(F)c(=O)[nH]1` [5-Fluorouracil, reference compound], the half-maximal inhibitory concentration (IC50) in [1] was 79.7 ± 0.64 µM; in [2], 3.58 ± 0.45 µM; in data set [3], 2.87 ± 0.15 µM; in data set [4], 5.26 ± 0.31 µM. In addition, the “SI (selectivity index), MCF-7” value in data set [2] is 22.26. Further, in data set [3], the “SI (selectivity index), HepG-2” value is 27.77. Also, in data set [4], the “SI (selectivity index), HCT-116” value is recorded as 15.15.

Take `Cc1ccc(S(=O)(=O)n2nc(C)c3c(-c4ccccc4)c(C#N)c(=S)[nH]c32)cc1` [Compound 5a, 3-Methyl-4-phenyl-6-thioxo-1-tosyl-6,7-dihydro-1H-pyrazolo[3,4-b]pyridine-5-carbonitrile]: in data set [1], the concentration for half-maximal inhibition (IC50) amounted to 80.46 ± 0.33 µM. Also, the “cell cycle arrest phase” value with HepG-2 cells [5] (HepG-2, 3.42 μM) was “arrested the cell cycle at the G1/S phase; also recorded: cell cycle arrest at the G1/S phase”. In addition, in the data set on HepG-2 cells [5] (setting [7]), the “percentage of cells in G0–G1 phase” value turned out to be 51.93%, the “percentage of cells in G2/M phase” value worked out at 3.89% and the “percentage of cells in S phase” value came out at 44.18%. In the data set with HepG-2 cells [6] (HepG-2, 3.42 μM, 24 h), the “Apoptosis Early” value stood at 24.63%, the “Apoptosis Late” value is listed as 16.28% and the Necrosis is 6.24%. Besides, in the data set with HepG-2 cells [6] (setting [8]), the “fold increase of early apoptotic cells” value was “about 63 folds” and the “fold increase of late apoptotic cells” value is about 116 folds. Moreover, in the data set with Bax, the Bax is 211.40 ± 0.25 pg/mL and the Bax/Bcl-2 is 101.14. Also, in the data set with Bax (vs untreated HepG-2 cells), the “fold increase of Bax level” value was about 5.4 folds and the “fold increase of Bax/Bcl-2 ratio” value came out at 21 times. In addition, the Bcl-2 with Bcl-2 came out at 2.09 ± 0.15 ng/mL. Besides, the “fold reduction of Bcl-2 level” value with Bcl-2 (vs untreated HepG-2 cells) was about 3.9 folds. The p53 in the data set on p53 (HepG-2, 24 h, 5a at 3.42 μM) amounted to 825.22 ± 0.40 pg/mL. For the same molecule, the “fold upregulation of p53” value in the data set on p53 (vs untreated HepG-2 cells) is 6.9 folds. Further, the Casp-3 with caspase-3 turned out to be 42.60 ± 0.10 ng/mL. In the data set on caspase-3 (vs untreated HepG-2 cells), the “fold upregulation of caspase-3” value amounted to 23.8 folds. Moreover, in [2], the IC50 is 5.25 ± 1.04 µM and the “SI (selectivity index), MCF-7” value is listed as 15.32. In [3], the IC50 came out at 3.42 ± 1.31 µM and the “SI (selectivity index), HepG-2” value was found to be 23.52. Further, in data set [3] (ratio of IC50 values), the “fold more potent than erlotinib against HepG-2” value was “approximately 2.4 fold”. Further, in data set [4], the half-maximal inhibitory concentration (IC50) stood at 6.27 ± 1.15 µM and the “SI (selectivity index), HCT-116” value was found to be 12.83. This molecule also showed an IC50 at c-Met kinase of 0.00427 ± 0.00031 µM.

On to `Cc1ccc(S(=O)(=O)n2nc(C)c3c(-c4ccc(Cl)cc4)c(C#N)c(=S)[nH]c32)cc1` [Compound 5b, 4-(4-Chlorophenyl)-3-methyl-6-thioxo-1-tosyl-6,7-dihydro-1H-pyrazolo[3,4-b]pyridine-5-carbonitrile], for which the IC50 in data set [1] amounted to 85.1 ± 0.32 µM; in [2] it was 6.82 ± 1.1 µM; in data set [3], 3.56 ± 1.5 µM; in data set [4], 9.21 ± 0.02 µM; against c-Met kinase, 0.00795 ± 0.00017 µM. Moreover, the “SI (selectivity index), MCF-7” value in [2] is listed as 12.47. The “fold more potent than erlotinib against HepG-2” value in data set [3] (ratio of IC50 values) was “approximately 2.4 fold”. Besides, the “SI (selectivity index), HepG-2” value in [3] was 23.90. Also, the “SI (selectivity index), HCT-116” value in data set [4] is given as 9.23.

Turning to `Cc1ccc(S(=O)(=O)n2nc(C)c3c(-c4ccccc4)c4c(N)c(C(N)=O)sc4nc32)cc1` [Compound 8a, 5-Amino-3-methyl-4-phenyl-1-tosyl-1H-pyrazolo[3,4-b]thieno[3,2-e]pyridine-6-carboxamide], the IC50 in data set [2] is 43.02 ± 0.24 µM; in data set [3], 30.58 ± 0.01 µM; in data set [4] it was 47.38 ± 0.11 µM.

On to `CC(=O)c1sc2nc3c(c(C)nn3S(=O)(=O)c3ccc(C)cc3)c(-c3ccccc3)c2c1N` [Compound 8b, 1-(5-Amino-3-methyl-4-phenyl-1-tosyl-1H-pyrazolo[3,4-b]thieno[3,2-e]pyridin-6-yl)ethan-1-one], for which the IC50 in [2] is 60.23 ± 0.17 µM; in data set [3] it was 52.1 ± 0.71 µM; in [4], 67.84 ± 0.02 µM.

With `Cc1ccc(S(=O)(=O)n2nc(C)c3c(-c4ccc(Cl)cc4)c4c(N)c(C#N)sc4nc32)cc1` [Compound 8c, 5-Amino-4-(4-chlorophenyl)-3-methyl-1-tosyl-1H-pyrazolo[3,4-b]thieno[3,2-e]pyridine-6-carbonitrile], the values for the concentration for half-maximal inhibition (IC50) in data set [2], in [3] and in data set [4] were 36.25 ± 0.13 µM, 25.4 ± 0.5 µM and 41.77 ± 0.4 µM, respectively.

As for `CCOC(=O)c1sc2nc3c(c(C)nn3S(=O)(=O)c3ccc(C)cc3)c(-c3ccc(Cl)cc3)c2c1N` [Compound 8d, Ethyl 5-amino-4-(4-chlorophenyl)-3-methyl-1-tosyl-1H-pyrazolo[3,4-b]thieno[3,2-e]pyridine-6-carboxylate], the values for the IC50 in data set [2], in data set [3] and in data set [4] were 32.14 ± 0.19 µM, 23.12 ± 0.08 µM and 38.11 ± 0.3 µM, respectively.

For `CC(=O)c1sc2nc3c(c(C)nn3S(=O)(=O)c3ccc(C)cc3)c(-c3ccc(Cl)cc3)c2c1N` [Compound 8e, 1-(5-Amino-4-(4-chlorophenyl)-3-methyl-1-tosyl-1H-pyrazolo[3,4-b]thieno[3,2-e]pyridin-6-yl)ethan-1-one], the half-maximal inhibitory concentration (IC50) in data set [2] was determined as 14.2 ± 0.33 µM; in data set [3] it was 12.31 ± 0.1 µM; in [4] it was 18.2 ± 0.62 µM.

In the case of `Cc1ccc(S(=O)(=O)n2nc(C)c3c(-c4ccc(Cl)cc4)c4c(N)c(C(=O)O)sc4nc32)cc1` [Compound 8f, 5-Amino-4-(4-chlorophenyl)-3-methyl-1-tosyl-1H-pyrazolo[3,4-b]thieno[3,2-e]pyridine-6-carboxylic acid], the IC50 in data set [2] is 19.3 ± 0.45 µM; in data set [3], 15.4 ± 0.3 µM; in [4], 18.86 ± 0.12 µM.

Regarding `Cc1ccc(S(=O)(=O)n2nc(C)c3sc(=S)n(C)c32)cc1` [Compound 10a, 3,6-Dimethyl-1-tosyl-1,6-dihydro-5H-pyrazolo[3,4-d]thiazole-5-thione], the IC50 is 13.7 ± 0.7 µM in data set [2], 10.2 ± 0.15 µM in data set [3] and 17.2 ± 0.37 µM in data set [4].

As for `Cc1ccc(S(=O)(=O)n2nc(C)c3sc(=S)n(-c4ccccc4)c32)cc1` [Compound 10b, 3-Methyl-6-phenyl-1-tosyl-1H-pyrazolo[3,4-d]thiazole-5(6H)-thione], the IC50 in data set [1] is 85.41 ± 0.51 µM. For the same molecule, in data set [2], the IC50 was found to be 8.13 ± 0.4 µM and the “SI (selectivity index), MCF-7” value worked out at 10.50. For the same molecule, in data set [3], the IC50 amounted to 6.75 ± 0.62 µM and the “SI (selectivity index), HepG-2” value turned out to be 12.65. Besides, in [3] (ratio of IC50 values), the “fold less potent than 5-FU against HepG-2” value is 2.3 fold. Moreover, in data set [4], the concentration for half-maximal inhibition (IC50) is 9.36 ± 0.45 µM and the “SI (selectivity index), HCT-116” value turned out to be 9.12.

On to `C#Cc1cccc(Nc2ncnc3cc(OCCOC)c(OCCOC)cc23)c1` [Erlotinib, reference compound], for which, in data set [1], the half-inhibitory concentration (IC50) came to 70 ± 1.08 µM. For the same molecule, in the data set with Bax, the Bax was determined as 200.20 ± 0.25 pg/mL and the Bax/Bcl-2 is 118.84. The molecule further returned a Bcl-2 in the data set on Bcl-2 of 1.69 ± 0.10 ng/mL. In the data set on caspase-3, the Casp-3 amounted to 58.41 ± 0.12 ng/mL.
